Assay [1] addresses T1, FGFR3 (V555M) (Homo sapiens, UniProt P22607, V555M).
T1 construct: made in house; host or cells: E. coli derived from BL21, infected with T7 phage
Briefly: Kinase binding assay (kinase-tagged T7 phage, affinity beads, qPCR readout), FGFR3 (V555M). The note with it: FGFR binding data. The method in brief: (§1)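 Dissociation constants were measured by bead-capture competition at 0.9% DMSO, room temperature, 1 hour. qPCR of eluted kinase supplied the signal.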
In general terms: In qPCR the cycle at which signal appears reflects the starting amount.

Assay [2] deals with T2, FGFR2 (Homo sapiens, UniProt P21802).
T2 construct: made in house; host or cells: E. coli derived from BL21, infected with T7 phage
Nature of the assay: Kinase binding assay (kinase-tagged T7 phage, affinity beads, qPCR readout), FGFR2. The following applies: FGFR binding data. An outline of the steps: as §1

Assay [3] deals with RT112/84 (Bladder Cancer), FGFR3-TACC3 fusion. Nature of the assay: Cancer cell viability assay (Cell Titer-Glo), RT112/84. The class given is cell-based. The note with it: Homo sapiens, RT112/84 cells, 72 hours. An excerpt:
(§2) RT112/84, UM-UC-14, SNU-16 and KG-1 Cancer Cell Line Cell Viability Assays
(§3) To detect the change of intracellular ATP by Cell Titer-Glo@ and to evaluate the inhibitory effect of the compounds on cancer cell lines by determining the in vitro IC50 value of the compounds.
(§4) Cell Titer-Glo@ 2.0 Luminescent cell viability assay reagent was purchased from Promega (Madison, WI). RT112/84, SNU-16, and KG-1 cell lines were purchased from American Type Culture Collection (Manassas, VA). UM-UC-14 cell line was purchased from Sigma (St. Louis, MO). RT112/84, UM-UC-14, SNU-16, and KG-1 cells were cultured in RPMI1640 media supplemented with 10% fetal bovine serum. Cultures were maintained at 37° C. in a humidified atmosphere of 5% CO2 and 95% air.
(§5) Cell Viability Assay Procedure: Cells were plated in 96-well clear bottom/white plates (Corning #3903) at 10,000 cells/well in 100 μl of media, incubated overnight. The next day, test compound DMSO stock solutions were made at 10 mM and 2 μM final concentration. Compounds were then added to cells in a 9-dose, […] dilution series starting at 30 μM with an HP 300e Digital Dispenser (each dose was applied in triplicate). DMSO was backfilled to each well up to 301 nL total volume of test compound+DMSO, and a total of 301 nL DMSO was added to a control/no test compound well in triplicate. The cells in cell culture plates were incubated with the compounds at 37° C. and 5% CO2 for 72 hours. Then 50 μl of Cell Titer Glo 2.0 reagent was added to each well of the cell culture plates. The contents were covered from light and mixed on an orbital shaker at room temperature for 10 min. Luminescence was recorded by a Synergy H1 Microplate Reader (Biotek, Winooski, VT). Cells were assessed as a percentage of DMSO only treated control cells. Curves were plotted and IC50 values were calculated using the GraphPad Prism 8 program based on a sigmoidal dose-response equation (4 parameter).

Assay [4] has as its target T3, FGFR1 (Homo sapiens, UniProt P11362).
T3 construct: made in house; host or cells: E. coli derived from BL21, infected with T7 phage
Nature of the assay: Kinase binding assay (kinase-tagged T7 phage, affinity beads, qPCR readout), FGFR1. The following applies: FGFR binding data. An outline of the steps:
as §1

Assay [5] addresses T4, FGFR3 (Homo sapiens, UniProt P22607).
T4 construct: made in house; host or cells: E. coli derived from BL21, infected with T7 phage
Briefly: Kinase binding assay (kinase-tagged T7 phage, affinity beads, qPCR readout), FGFR3. The note with it: FGFR binding data. The method in brief:
as §1

In assay [6] the test system is UM-UC-14 (Bladder Cancer), FGFR3(S249C). Nature of the assay: Cancer cell viability assay (Cell Titer-Glo), UM-UC-14. It is filed as cell-based. The following applies: UMUC14, UM-UC-14 cells, 72 hours. The method in brief:
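Cells seeded at 10,000/well in RPMI1640 with 10% FBS, then exposed 72 h at 37° C. to a 9-point 10-fold dilution series from 30 μM, in triplicate. Viability read as ATP luminescence (CellTiter-Glo 2.0) as percent of DMSO control; IC50 from 4-parameter sigmoidal fit.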
(In ATP-based viability assays light output follows the ATP content of the culture.)

Assay [7] has as its system KG-1 (Acute Myeloid Leukemia), FGFR1OP2-FGFR1 fusion. Briefly: Cancer cell viability assay (Cell Titer-Glo), KG-1. The following applies: Homo sapiens, KG-1 cells, 72 hours. The class given is cell-based.
Excerpt: as §2, §3, §4, §5

T2 sequence (P21802 22-821): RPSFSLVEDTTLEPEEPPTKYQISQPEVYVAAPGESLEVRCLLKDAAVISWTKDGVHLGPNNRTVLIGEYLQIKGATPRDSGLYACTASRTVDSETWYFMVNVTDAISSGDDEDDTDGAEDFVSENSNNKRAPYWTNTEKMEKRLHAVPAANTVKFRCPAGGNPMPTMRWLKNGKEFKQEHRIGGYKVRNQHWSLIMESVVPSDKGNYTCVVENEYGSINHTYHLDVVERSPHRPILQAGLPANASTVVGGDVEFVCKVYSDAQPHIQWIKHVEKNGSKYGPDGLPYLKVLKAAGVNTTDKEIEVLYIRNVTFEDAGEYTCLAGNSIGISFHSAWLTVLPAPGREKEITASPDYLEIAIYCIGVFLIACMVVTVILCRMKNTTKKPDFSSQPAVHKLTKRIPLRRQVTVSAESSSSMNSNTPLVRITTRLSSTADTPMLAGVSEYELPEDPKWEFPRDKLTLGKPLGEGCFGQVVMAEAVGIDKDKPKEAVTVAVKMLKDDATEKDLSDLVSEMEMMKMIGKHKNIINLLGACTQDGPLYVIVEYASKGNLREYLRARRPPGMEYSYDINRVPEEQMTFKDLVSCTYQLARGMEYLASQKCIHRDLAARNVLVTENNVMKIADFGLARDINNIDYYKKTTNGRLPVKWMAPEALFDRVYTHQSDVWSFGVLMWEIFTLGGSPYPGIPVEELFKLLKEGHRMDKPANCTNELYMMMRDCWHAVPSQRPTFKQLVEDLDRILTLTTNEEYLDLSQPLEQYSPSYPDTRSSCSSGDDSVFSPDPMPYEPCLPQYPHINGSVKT
T3 sequence (P11362 22-822): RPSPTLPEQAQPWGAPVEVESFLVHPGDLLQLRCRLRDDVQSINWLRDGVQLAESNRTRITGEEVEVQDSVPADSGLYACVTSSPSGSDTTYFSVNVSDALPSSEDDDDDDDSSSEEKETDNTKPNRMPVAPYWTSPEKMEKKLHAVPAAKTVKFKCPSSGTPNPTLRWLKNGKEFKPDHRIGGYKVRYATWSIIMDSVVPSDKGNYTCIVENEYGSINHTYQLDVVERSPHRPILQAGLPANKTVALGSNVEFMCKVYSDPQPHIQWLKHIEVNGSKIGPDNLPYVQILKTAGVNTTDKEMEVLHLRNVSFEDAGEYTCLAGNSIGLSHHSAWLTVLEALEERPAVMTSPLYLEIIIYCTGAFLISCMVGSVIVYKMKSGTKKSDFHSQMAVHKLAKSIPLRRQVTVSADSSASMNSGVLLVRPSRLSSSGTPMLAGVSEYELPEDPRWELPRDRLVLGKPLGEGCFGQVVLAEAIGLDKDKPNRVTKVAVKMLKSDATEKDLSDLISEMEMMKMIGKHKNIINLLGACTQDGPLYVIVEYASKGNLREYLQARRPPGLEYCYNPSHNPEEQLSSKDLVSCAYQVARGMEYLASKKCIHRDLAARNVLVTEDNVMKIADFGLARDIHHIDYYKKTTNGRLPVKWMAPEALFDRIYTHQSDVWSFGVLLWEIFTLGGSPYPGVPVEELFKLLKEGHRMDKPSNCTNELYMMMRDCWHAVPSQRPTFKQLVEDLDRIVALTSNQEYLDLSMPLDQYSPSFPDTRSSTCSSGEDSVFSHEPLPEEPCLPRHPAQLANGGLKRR
T4 sequence (P22607 23-806): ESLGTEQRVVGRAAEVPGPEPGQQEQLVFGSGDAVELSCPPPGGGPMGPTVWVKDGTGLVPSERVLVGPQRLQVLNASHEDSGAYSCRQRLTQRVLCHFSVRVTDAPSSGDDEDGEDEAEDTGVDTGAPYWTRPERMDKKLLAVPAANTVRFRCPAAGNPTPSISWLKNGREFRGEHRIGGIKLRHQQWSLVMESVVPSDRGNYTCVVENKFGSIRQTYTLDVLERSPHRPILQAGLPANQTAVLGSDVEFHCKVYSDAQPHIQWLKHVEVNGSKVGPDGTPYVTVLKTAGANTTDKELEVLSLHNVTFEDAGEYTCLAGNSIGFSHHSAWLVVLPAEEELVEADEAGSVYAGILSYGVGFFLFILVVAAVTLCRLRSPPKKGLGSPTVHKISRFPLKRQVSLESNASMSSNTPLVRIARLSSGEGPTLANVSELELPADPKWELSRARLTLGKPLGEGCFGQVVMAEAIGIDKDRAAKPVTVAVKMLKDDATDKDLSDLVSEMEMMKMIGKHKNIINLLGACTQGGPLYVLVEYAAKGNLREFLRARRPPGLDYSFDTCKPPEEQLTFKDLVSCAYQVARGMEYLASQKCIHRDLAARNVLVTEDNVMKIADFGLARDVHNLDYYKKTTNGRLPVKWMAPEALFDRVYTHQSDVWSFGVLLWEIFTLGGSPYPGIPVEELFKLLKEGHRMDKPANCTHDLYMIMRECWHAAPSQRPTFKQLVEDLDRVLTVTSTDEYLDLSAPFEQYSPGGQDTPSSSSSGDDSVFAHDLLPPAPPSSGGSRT
T1 sequence (P22607 23-806 V555M): as the sequence (P22607 23-806) above, with V533M counted along it

Turning to `C=CC(=O)Nc1ccc2c(c1)c(C)cn2-c1nc(Nc2cnn(C3CCN(C4COC4)CC3)c2)ncc1Cl` [Example 34, N-[1-[5-Chloro-2-[[1-[1-(oxetan-3-yl)-4-piperidyl]pyrazol-4-yl]amino]pyrimidin-4-yl]-3-methyl-indol-5-yl]prop-2-enamide], the Kd in assay [1], in assay [2], in assay [4] and in assay [5] was 0.1 to 100 nM throughout. Further, the half-inhibitory concentration (IC50) in assay [3], in assay [6] and in assay [7] was 0.1 to 100 nM throughout.

`C=CC(=O)Nc1ccc2c(c1)c(C)cn2-c1nc(Nc2ccc(N3CCOCC3)cc2)ncc1Cl` [Example 24, N-[3-methyl-1-[5-chloro-2-(4-morpholinoanilino)pyrimidin-4-yl]indol-5-yl]prop-2-enamide]: the Kd in assay [1], in assay [2], in assay [4] and in assay [5] was 0.1 to 100 nM in each case. For the same compound, the IC50 in assay [3], in assay [6] and in assay [7] was 0.1 to 100 nM in each case.

For the compound `C=CC(=O)Nc1ccc2c(c1)c(C)cn2-c1nc(Nc2ccc(N3CCOCC3)c(F)c2)ncc1Cl` [Example 22, N-[1-[5-chloro-2-(3-fluoro-4-morpholino-anilino)pyrimidin-4-yl]-3-methyl-indol-5-yl]prop-2-enamide], the Kd in assay [1], in assay [2], in assay [4] and in assay [5] was 0.1 to 100 nM each time. Further, the IC50 in assay [3], in assay [6] and in assay [7] was 0.1 to 100 nM in each case.

Take `C=CC(=O)Nc1ccc2c(c1)c(C)cn2-c1nc(Nc2cnn(C)c2)ncc1Cl` [Example 25, N-[1-[5-chloro-2-[(1-methylpyrazol-4-yl)amino]pyrimidin-4-yl]-3-methyl-indol-5-yl]prop-2-enamide]: the Kd in assay [1], in assay [2], in assay [4] and in assay [5] was 0.1 to 100 nM in each case. Further, the IC50 in assay [3], in assay [6] and in assay [7] was 0.1 to 100 nM each time.

On to `C=CC(=O)Nc1ccc2c(c1)c(C)cn2-c1nc(Nc2cnn(C3CCN(CC)CC3)c2)ncc1Cl` [Example 42, N-[1-[5-chloro-2-[[1-(1-ethyl-4-piperidyl)pyrazol-4-yl]amino]-pyrimidin-4-yl]-3-methyl-indol-5-yl]prop-2-enamide], for which the Kd in assay [1], in assay [2], in assay [4] and in assay [5] was 0.1 to 100 nM throughout. Moreover, the IC50 in assay [3], in assay [6] and in assay [7] was 0.1 to 100 nM in each case.

Turning to `C=CC(=O)Nc1ccc2c(c1)c(C)cn2-c1nc(Nc2cn(C)cn2)ncc1Cl` [Example 28, N-[1-[5-chloro-2-[(1-methylimidazol-4-yl)amino]pyrimidin-4-yl]-3-methyl-indol-5-yl]prop-2-enamide], the Kd in assay [1], in assay [2], in assay [4] and in assay [5] was 0.1 to 100 nM throughout. Besides, the 50% inhibitory concentration (IC50) (commonly the concentration that inhibits the measured activity by half) in assay [3] was above 1000 nM; in assay [6], 0.1 to 100 nM; in assay [7] it was 0.1 to 100 nM.

Regarding `C=CC(=O)Nc1ccc2c(ccn2-c2nc(Nc3cnn(C)c3)ncc2Cl)c1` [Example 2, N-[1-[5-chloro-2-[(1-methylpyrazol-4-yl)amino]pyrimidin-4-yl]indol-5-yl]prop-2-enamide], the Kd in assay [1], in assay [2], in assay [4] and in assay [5] was 0.1 to 100 nM each time. Besides, the IC50 in assay [3], in assay [6] and in assay [7] was 0.1 to 100 nM throughout.

As to `C=CC(=O)Nc1ccc2c(c1)c(C)cn2-c1nc(Nc2cn(C)nc2C)ncc1Cl` [Example 35, N-[1-[5-chloro-2-[(1,3-dimethylpyrazol-4-yl)amino]pyrimidin-4-yl]-3-methyl-indol-5-yl]prop-2-enamide], the Kd in assay [1], in assay [2], in assay [4] and in assay [5] was 0.1 to 100 nM in each case. Also, the IC50 in assay [3], in assay [6] and in assay [7] was 0.1 to 100 nM each time.

With `C=CC(=O)Nc1ccc2c(c1)c(C)cn2-c1nc(Nc2cccc(OCCN3CCOCC3)c2)ncc1C` [Example 9, N-[3-methyl-1-[5-methyl-2-[3-(2-morpholinoethoxy)anilino]pyrimidin-4-yl]indol-5-yl]prop-2-enamide], the dissociation constant Kd in assay [1], in assay [2], in assay [4] and in assay [5] was 0.1 to 100 nM throughout. For the same compound, the IC50 in assay [3], in assay [6] and in assay [7] was 0.1 to 100 nM each time.

For `C=CC(=O)Nc1ccc2c(c1)c(C)cn2-c1nc(Nc2ccn(C)n2)ncc1C` [Example 81, N-[3-methyl-1-[5-methyl-2-[(1-methylpyrazol-3-yl)amino]pyrimidin-4-yl]indol-5-yl]prop-2-enamide], the Kd in assay [1], in assay [2], in assay [4] and in assay [5] was 0.1 to 100 nM each time. For the same compound, the IC50 in assay [3], in assay [6] and in assay [7] was 0.1 to 100 nM each time.

In the case of `C=CC(=O)Nc1ccc2c(c1)c(C)cn2-c1nc(Nc2ccc(OC)c(OC)c2)ncc1Cl` [Example 23, N-[1-[5-chloro-2-(3,4-dimethoxyanilino)pyrimidin-4-yl]-3-methyl-indol-5-yl]prop-2-enamide], the Kd in assay [1], in assay [2], in assay [4] and in assay [5] was 0.1 to 100 nM in each case. For the same compound, the IC50 in assay [3], in assay [6] and in assay [7] was 0.1 to 100 nM in each case.

In the case of `C=CC(=O)Nc1ccc2c(-c3nc(Nc4cnn(C)c4)ncc3Cl)cn(C)c2c1` [Example 30, N-[3-[5-Chloro-2-[(1-methylpyrazol-4-yl)amino]pyrimidin-4-yl]-1-methyl-indol-6-yl]prop-2-enamide], the Kd in assay [1], in assay [2], in assay [4] and in assay [5] was 0.1 to 100 nM in each case. The IC50 in assay [3], in assay [6] and in assay [7] was 0.1 to 100 nM throughout.

`C=CC(=O)Nc1ccc2c(c1)c(C)cn2-c1nc(Nc2ccc(OCCN3CCOCC3)cc2)ncc1C` [Example 19, N-[3-methyl-1-[5-methyl-2-[4-(2-morpholinoethoxy)anilino]pyrimidin-4-yl]indol-5-yl]prop-2-enamide]: the Kd in assay [1], in assay [2], in assay [4] and in assay [5] was 0.1 to 100 nM throughout. Also, the IC50 in assay [3], in assay [6] and in assay [7] was 0.1 to 100 nM each time.

Consider `C=CC(=O)Nc1ccc2c(-c3nc(Nc4ccc(N5CCOCC5)cc4)ncc3F)cn(C)c2c1` [Example 57, N-[3-[5-Fluoro-2-(4-morpholinoanilino)pyrimidin-4-yl]-1-methyl-indol-6-yl]prop-2-enamide], for which the Kd in assay [1], in assay [2], in assay [4] and in assay [5] was 0.1 to 100 nM throughout. For the same compound, the IC50 in assay [3], in assay [6] and in assay [7] was 0.1 to 100 nM throughout.

As to `C=CC(=O)Nc1ccc2c(ccn2-c2nc(Nc3cccc(OCCN4CCOCC4)c3)ncc2Cl)c1C` [Example 7, N-[1-[5-chloro-2-[3-(2-morpholinoethoxy)anilino]pyrimidin-4-yl]-4-methyl-indol-5-yl]prop-2-enamide], the Kd (in general, the free concentration of one partner at which half of the binding sites on the other are occupied at equilibrium, for simple one-to-one binding) in assay [1] is 0.1 to 100 nM; in assay [2] it was 100 to 250 nM; in assay [4] it was 0.1 to 100 nM; in assay [5], 100 to 250 nM. Further, the figures for the IC50 in assay [3], in assay [6] and in assay [7] were above 1000 nM, above 1000 nM and 250 to 1000 nM, respectively.

These data come from patent US20240190849A1, “AMINOPYRIMIDINE COMPOUNDS AND METHODS OF THEIR USE” (TYRA BIOSCIENCES, INC., priority 2021, published 2024).
